# Results published in patent US5023358A, “Vanadyl organo-mineral compound, method for obtaining such a compound, pharmaceutical composition containing this organo-mineral compound” (Panmedica S.A., priority 1987, dated 1991).
# How the values were obtained:
# insulin receptor = details: intra-cellular, vanadyl (V^4+) form; cited from earlier work
# diabetic rats [1] = details: cited from earlier work
# Na^+ /K^+ ATP ase enzyme = details: absorption mechanisms; cited from earlier work
# diabetic rats [2] = details: oral, cited from earlier work
# diabetic rats [3] = test: Glycemia of diabetic (streptozotocin) and non-diabetic rats after a unique oral administration; type: in vivo, rat
# Source text: Then, the anti-diabetic activity of the above described complex of vanadyl and cystein has been examined.
# The examination has been performed also starting from the compound with the formula (II). The activity of this compound has been compared on diabetic rats and on non-diabetic rats, and the activity of this compound (II) has be compared with that of the vanadyl sulfate.
# Tests have been carried out on animals having a glycemia higher than 3 g/l.
# The method is as follows. Diabetes is induced by intraveinous injection of a unique dose of streptozotocin of about 50 mg/kg, on male or female rats of the WISTAR strain with a mean weight of 200 g. The glycemia is measured 4 days after the injection.
# The procedure of the pharmacological tests is as follows. A quantity of 45 mg/kg of compound (II) is administered by forcible feeding (doses of 10 ml/kg) to animals which have been fed, in the form of a suspension in a 3% solution of gum arabic. A dose of vanadyl sulfate equimolar to 45 mg/kg of compound (II) is administered.
# The glycemia is measured by quantitative analysis. Blood is sampled from the tail of the animal. The glycemia is measured by means of a device named "AMES glucometer" (trade-mark). The rate of glycemia is read on "Derotrostix" dipsticks (trade-mark) of the aforesaid device.
# [4] = system: male rats of the WISTAR strain; type: in vivo; details: oral, rat
# Source text: First, the potential toxicity of the complex has been investigated.
# The investigation has been carried out starting from the bimolecular vanadyl compound having one free amin group, of the general formula (II). After a unique oral administration to the rat, the measured toxicity of the compound of formula (II) on the one hand and of the vanadyl sulfate on the other hand have been compared.
# The procedure of the toxicological tests is as follows.
# On the one hand, the toxicity of the compound (II) is examined by administering orally increasing doses of compound (II), up to 1 g/kg, to a group of 10 male rats of the WISTAR strain with a mean weight of 150 g. A quantity of 10 ml/kg of a suspension of compound (II) in 3% gum arabic is administered, by forcible feeding, to animals which have not been fed. Then, the animals are examined for 14 days, in order to count for the deaths and to search and observe the signs of toxicity.
# On the other hand, the acute toxicity of the vanadyl sulfate (VOSO4) is contemplated under similar conditions on animals divided into 7 groups of 10 animals to which the following doses have been administered: 300, 400, 500, 600, 800, 1000 and 1500 mg/kg.
# The lethal dose (LD50) has been calculated by the method of […] AND WILCOXON.
# [5] = 45 mg/kg compound (II) or equimolar vanadyl sulfate
compound,measurement,setting,value
[O]=[V+2] [vanadyl (V^4+)],effect on phosphorylation of the insulin receptor,insulin receptor,facilitating or inducing the phosphorylation of the insulin receptor
sodium vanadate,effect on cardiac function impairment associated to diabetes,"diabetic rats [1]; in drink water, diabetic rats",the impairing of the cardiac function associated to diabetes is prevented
same,effect on glycemia of diabetic rats,"diabetic rats [1]; in drink water, diabetic rats",the glycemia of the rats is normalized
same,"anti-diabetic effect, taken orally",diabetic rats [1]; oral,has an anti-diabetic effect
[O]=[V]([O-])([O-])[O-] [vanadate],effect on Na+/K+ ATPase,Na^+ /K^+ ATP ase enzyme,inhibiting the Na^+ /K^+ ATP ase enzyme
O=S(=O)([O-])[O-].[O]=[V+2] [vanadyl sulfate],acute toxicity,diabetic rats [2]; diabetic rats,presents an acute toxicity
same,anti-diabetic effect in diabetic rats,diabetic rats [2],has an anti-diabetic effect
same,duration of the drop of glycemia,diabetic rats [3]; [5],≤ 2 h
same,effect on glycemia,diabetic rats [3]; [5],weaker and transitory decrease of the glycemia
same,maximal decrease of glycemia,diabetic rats [3]; vanadyl sulfate equimolar to 45 mg/kg of compound (II),about 1 g/l
same,signs of toxicity at the higher doses,"[4]; 800, 1000 and 1500 mg/kg",an hypothermia and cases of chromodacryorrhoea
same,dose of first signs of toxicity,[4]; unique administration,400 mg/kg
same,LD50,"[4]; unique administration, 20160 min",600 mg/kg
same,signs of toxicity,"[4]; unique administration, general and from 400 mg/kg","diarrhoea with a variable seriousness, a decrease of the motor activity and a loss of flesh"
